One data set deals with 5-HT2A receptor (Homo sapiens, UniProt P28223). As to the kind of experiment: biochemical. Also noted: expressed in transfected cells; host or cells: HEK293, stably transfected. As to conditions: [3H]ketanserin 1 nM; HEK293 stable cell line; 1 h, 25 °C. The format is binding. The method, then:
Affinity of the test compounds for the 5-HT2A receptor was determined in radioligand binding experiments with [^3H]ketanserin by WuXi AppTec (Hong Kong) Limited, using methods adapted from the literature and under conditions described in Table 1.

Data set [1] in a line: in vitro. The format is in vitro ADME, mouse. As to conditions: MLM (male CD-1) 0.50 mg/mL, NADPH 1 mM, 1 μM compound, pH 7.4, 37° C., 60 min; for microsomal CLint / half-life: mouse, microsomes; for microsomal CLint: read-out: Intrinsic clearance (Clint); for half-life: read-out: half-life (t1/2). The text has this:
MLM Stability Pooled MLM from male CD-1 mice (BIOIVT M00501) were used.

A short description of data set [2]: in vitro. The format is in vitro ADME, rat. To be noted: RLM (male Sprague-Dawley) 0.50 mg/mL, NADPH 1 mM, 1 μM compound, pH 7.4, 37° C., 60 min; for microsomal CLint / half-life: rat, microsomes; for microsomal CLint: read-out: Intrinsic clearance (Clint); for half-life: read-out: half-life (t1/2). The text has this:
RLM Stability Pooled RLM from male Sprague-Dawley rats (Xenotech R1000) were used.

Data set [3] can be described thus: in vitro. The format is in vitro ADME, human. To be noted: HLM 0.50 mg/mL, NADPH 1 mM, 1 μM compound, pH 7.4, 37° C., 60 min; for microsomal CLint / half-life: human, microsomes; for microsomal CLint: read-out: Intrinsic clearance (Clint); for half-life: read-out: half-life (t1/2).

Like-named read-outs stand apart in the source and are kept apart here.

Chain of 5-HT2A receptor (P28223 whole entry): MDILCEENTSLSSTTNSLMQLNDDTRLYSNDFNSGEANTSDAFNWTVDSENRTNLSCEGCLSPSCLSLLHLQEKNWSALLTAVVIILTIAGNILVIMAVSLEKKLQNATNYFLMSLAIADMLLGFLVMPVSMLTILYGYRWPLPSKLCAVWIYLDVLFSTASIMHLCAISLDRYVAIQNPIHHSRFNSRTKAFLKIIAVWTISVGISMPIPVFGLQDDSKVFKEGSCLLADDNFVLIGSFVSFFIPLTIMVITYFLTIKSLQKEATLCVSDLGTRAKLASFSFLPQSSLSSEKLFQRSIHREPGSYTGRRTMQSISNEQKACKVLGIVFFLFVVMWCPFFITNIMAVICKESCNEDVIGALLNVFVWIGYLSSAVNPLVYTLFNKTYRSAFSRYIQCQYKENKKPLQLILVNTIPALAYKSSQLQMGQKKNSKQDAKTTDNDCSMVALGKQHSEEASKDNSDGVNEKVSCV

`COc1cccc(CN2C[C@@H](C(=O)N3CCCC3)C=C3c4cccc5[nH]cc(c45)C[C@H]32)c1` [Compound 91a, ((6aR,9S)-7-(3-methoxybenzyl)-4,6,6a,7,8,9-hexahydroindolo[4,3-fg]quinolin-9-yl)(pyrrolidin-1-yl)methanone]: the Ki on 5-HT2A receptor is greater than 1.23 µM.
Still for that read-out and setting: with `CN(C)C(=O)[C@H]1C=C2c3cccc4[nH]cc(c34)C[C@H]2N(Cc2ccccc2)C1` [Compound 102a, (6aR,9S)-7-benzyl-N,N-dimethyl-4,6,6a,7,8,9-hexahydroindolo[4,3-fg]quinoline-9-carboxamide] the figure was 0.349 µM.
For the compound `O=C([C@H]1C=C2c3cccc4[nH]cc(c34)C[C@H]2N(Cc2ccccc2)C1)N1CCCC1` [Compound 84a, ((6aR,9S)-7-benzyl-4,6,6a,7,8,9-hexahydroindolo[4,3-fg]quinolin-9-yl)(pyrrolidin-1-yl)methanone], the microsomal CLint amounted to 784 µL/min/mg in the data set “in vitro [1]”, 257 µL/min/mg in “in vitro [2]” and 154 µL/min/mg in “in vitro [3]”. Besides, the values for the half-life in “in vitro [1]”, in “in vitro [2]” and in the data set “in vitro [3]” were 1.8 min, 5.4 min and 9 min, respectively. The Ki on 5-HT2A receptor was greater than 1.23 µM.
Regarding `COc1cccc(CN2C[C@@H](C(=O)N3[C@@H](C)C[C@@H]3C)C=C3c4cccc5[nH]cc(c45)C[C@H]32)c1` [Compound 94a, ((2S,4S)-2,4-dimethylazetidin-1-yl)((6aR,9S)-7-(3-methoxybenzyl)-4,6,6a,7,8,9-hexahydroindolo[4,3-fg]quinolin-9-yl)methanone], the Ki on 5-HT2A receptor worked out at 1.21 µM.
In turn, `CCN(CC)C(=O)[C@H]1C=C2c3cccc4[nH]cc(c34)C[C@H]2N(Cc2ccc3ccccc3c2)C1` [Compound 100a, (6aR,9S)—N,N-diethyl-7-(naphthalen-2-ylmethyl)-4,6,6a,7,8,9-hexahydroindolo[4,3-fg]quinoline-9-carboxamide] yielded a Ki on 5-HT2A receptor greater than 1.23 µM.
Consider `CCN(C)C(=O)[C@H]1C=C2c3cccc4[nH]cc(c34)C[C@H]2N(Cc2ccccc2)C1` [Compound 85a, (6aR,9S)-7-benzyl-N-ethyl-N-methyl-4,6,6a,7,8,9-hexahydroindolo[4,3-fg]quinoline-9-carboxamide], for which the microsomal CLint in the data set “in vitro [1]” worked out at 848 µL/min/mg; in the data set “in vitro [2]” it was 400 µL/min/mg; in “in vitro [3]”, 156 µL/min/mg. Also, the half-life in the data set “in vitro [1]” stood at 1.6 min; in the data set “in vitro [2]” it was 3.5 min; in “in vitro [3]” it was 8.9 min. In addition, affinity at 5-HT2A receptor was put at a Ki of 0.516 µM.
In turn, `CCN(C)C(=O)[C@H]1C=C2c3cccc4[nH]cc(c34)C[C@H]2N(Cc2cccc(OC)c2)C1` [Compound 92a, (6aR,9S)—N-ethyl-7-(3-methoxybenzyl)-N-methyl-4,6,6a,7,8,9-hexahydroindolo[4,3-fg]quinoline-9-carboxamide] displayed a Ki at 5-HT2A receptor greater than 1.23 µM.
The compound `[2H]C(c1cccc(OC)c1)N1C[C@H](C(=O)N(CC)CC)C=C2c3cccc4[nH]cc(c34)C[C@H]21` (stereo partly drawn) [Compound 96, (6aR,9R)—N,N-diethyl-7-((3-methoxyphenyl)methyl-d)-4,6,6a,7,8,9-hexahydroindolo[4,3-fg]quinoline-9-carboxamide] showed a Ki on 5-HT2A receptor of 0.00399 µM.
`COc1cccc(CN2C[C@H](C(=O)N3CCCC3)C=C3c4cccc5[nH]cc(c45)C[C@H]32)c1` [Compound 91, ((6aR,9R)-7-(3-methoxybenzyl)-4,6,6a,7,8,9-hexahydroindolo[4,3-fg]quinolin-9-yl)(pyrrolidin-1-yl)methanone] registered a Ki on 5-HT2A receptor of 0.128 µM.
Same read-out and setting: with `[2H]C([2H])(c1cccc(OC)c1)N1C[C@@H](C(=O)N(CC)CC)C=C2c3cccc4[nH]cc(c34)C[C@H]21` [Compound 68a, (6aR,9S)—N,N-diethyl-7-((3-methoxyphenyl)methyl-d2)-4,6,6a,7,8,9-hexahydroindolo[4,3-fg]quinoline-9-carboxamide] the figure was greater than 1.23 µM.
On to `CN1C[C@H](C(=O)N2CCCC2)C=C2c3cccc4[nH]cc(c34)C[C@H]21` [Int22], for which, in the data set “in vitro [3]”, the “Intrinsic clearance (Clint)” value is less than 9.6 µL/min/mg and the “half-life (t1/2)” value is recorded as greater than 145 min.
For the compound `CC[C@@H](C)NC(=O)[C@H]1C=C2c3cccc4[nH]cc(c34)C[C@H]2N(Cc2ccccc2)C1` [Compound 88a, (6aR,9S)-7-benzyl-N—((R)-sec-butyl)-4,6,6a,7,8,9-hexahydroindolo[4,3-fg]quinoline-9-carboxamide], the microsomal CLint came out at 837 µL/min/mg in the data set “in vitro [1]”, 830 µL/min/mg in the data set “in vitro [2]” and 302 µL/min/mg in the data set “in vitro [3]”. The half-life in the data set “in vitro [1]” came out at 1.7 min; in “in vitro [2]”, 1.7 min; in the data set “in vitro [3]”, 4.6 min. Besides, at 5-HT2A receptor, affinity was put at a Ki of 0.191 µM.
Turning to `C[C@H]1C[C@H](C)N1C(=O)[C@H]1C=C2c3cccc4[nH]cc(c34)C[C@H]2N(Cc2ccccc2)C1` [Compound 87a, ((6aR,9S)-7-benzyl-4,6,6a,7,8,9-hexahydroindolo[4,3-fg]quinolin-9-yl)((2S,4S)-2,4-dimethylazetidin-1-yl)methanone], the Ki at 5-HT2A receptor was determined as 1.14 µM.
On the same count and under the same terms, with `CCN(CC)C(=O)[C@H]1C=C2c3cccc4[nH]cc(c34)C[C@H]2N(Cc2ccccc2C)C1` [Compound 99a, (6aR,9S)—N,N-diethyl-7-(2-methylbenzyl)-4,6,6a,7,8,9-hexahydroindolo[4,3-fg]quinoline-9-carboxamide] the figure was 0.802 µM.
Same read-out and setting: as for `CC[C@@H](C)NC(=O)[C@H]1C=C2c3cccc4[nH]cc(c34)C[C@H]2N(Cc2ccccc2)C1` [Compound 95a, (6aR,9S)-7-benzyl-N—((R)-sec-butyl)-4,6,6a,7,8,9-hexahydroindolo[4,3-fg]quinoline-9-carboxamide], the figure is 0.123 µM; as for `CCN(CC)C(=O)[C@H]1C=C2c3cccc4[nH]cc(c34)C[C@H]2N(Cc2cccc(F)c2)C1` [Compound 52a, (6aR,9S)—N,N-diethyl-7-(3-fluorobenzyl)-4,6,6a,7,8,9-hexahydroindolo[4,3-fg]quinoline-9-carboxamide], greater than 1.23 µM.
The same measure, in the same setting: with `CCN(CC)C(=O)[C@H]1C=C2c3cccc4[nH]cc(c34)C[C@H]2N(Cc2cccc(C)c2)C1` [Compound 98a, (6aR,9S)—N,N-diethyl-7-(3-methylbenzyl)-4,6,6a,7,8,9-hexahydroindolo[4,3-fg]quinoline-9-carboxamide] the figure was 0.91 µM.
The compound `CCCN(CC)C(=O)[C@H]1C=C2c3cccc4[nH]cc(c34)C[C@H]2N(Cc2cccc(OC)c2)C1` [Compound 93a, (6aR,9S)—N-ethyl-7-(3-methoxybenzyl)-N-propyl-4,6,6a,7,8,9-hexahydroindolo[4,3-fg]quinoline-9-carboxamide] had a Ki on 5-HT2A receptor of 0.23 µM.
For `[2H]C(c1cccc(OC)c1)N1C[C@@H](C(=O)N(CC)CC)C=C2c3cccc4[nH]cc(c34)C[C@H]21` (stereo partly drawn) [Compound 96a, (6aR,9S)—N,N-diethyl-7-((3-methoxyphenyl)methyl-d)-4,6,6a,7,8,9-hexahydroindolo[4,3-fg]quinoline-9-carboxamide], the Ki at 5-HT2A receptor was 1 µM.
On to `CCN(CC)C(=O)[C@H]1C=C2c3cccc4[nH]cc(c34)C[C@H]2N(Cc2ccc(F)c(F)c2)C1` [Compound 54a, (6aR,9S)-7-(3,4-difluorobenzyl)-N,N-diethyl-4,6,6a,7,8,9-hexahydroindolo[4,3-fg]quinoline-9-carboxamide], for which the affinity at 5-HT2A receptor corresponds to a Ki of 0.289 µM.
In the case of `CCN(CC)C(=O)[C@H]1C=C2c3cccc4[nH]cc(c34)C[C@H]2N(Cc2cccc3ccccc23)C1` [Compound 101a, (6aR,9S)—N,N-diethyl-7-(naphthalen-1-ylmethyl)-4,6,6a,7,8,9-hexahydroindolo[4,3-fg]quinoline-9-carboxamide], the Ki at 5-HT2A receptor was 0.75 µM.
The same measure, in the same setting: as for `CCN(C)C(=O)[C@H]1C=C2c3cccc4[nH]cc(c34)C[C@H]2N(CC2CCCC2)C1` [Compound 103a, (6aR,9S)-7-(cyclopentylmethyl)-N-ethyl-N-methyl-4,6,6a,7,8,9-hexahydroindolo[4,3-fg]quinoline-9-carboxamide], the figure is 0.511 µM.
As for `[2H]C([2H])([2H])Oc1cccc(CN2C[C@H](C(=O)N(CC)CC)C=C3c4cccc5[nH]cc(c45)C[C@H]32)c1` [Compound 56, (6aR,9R)—N,N-diethyl-7-(3-(methoxy-d3)benzyl)-4,6,6,7,8,9-hexahydroindolo[4,3-fg]quinoline-9-carboxamide], the “Intrinsic clearance (Clint)” value in the data set “in vitro [1]” was determined as 223.3 µL/min/mg; in “in vitro [2]”, 224.5 µL/min/mg; in “in vitro [3]” it was 113.3 µL/min/mg. Besides, the “half-life (t1/2)” value was found to be 6.2 min in the data set “in vitro [1]”, 6.2 min in “in vitro [2]” and 12.2 min in the data set “in vitro [3]”.

These data come from patent US20260317319A1, “NOVEL ERGOLINES AND METHODS OF TREATING MOOD DISORDERS” (Gilgamesh Pharma Inc., priority 2023, published 2026).
